Legend:
[1] = Water dispersion test; assay type: physicochemical; settings: 0.5% surfactant added to Paste A
Protocol: Add appropriate food-grade carmine dye to the above pastes, homogenize thoroughly with a homogenizer so that each paste can be squeezed out from a 25 G root canal irrigation needle, and divide into syringes for use.
S1: Prepare 23 150 mL beakers with similar diameters, fill them with water, and inject one drop (approximately 0.01 g) of each of the 23 pastes (A, B, C, D, E, F, G, H, A1-A15) into each beaker through a 25 G root canal irrigation needle (except G and H).
S2: Observe the color change immediately after preparation.

[2] = tested on: Enterococcus faecalis; settings: in vitro direct contact; cited from earlier work
[3] = tested on: bacteria; settings: intracanal medicament for one week; cited from earlier work

Compound	effect of surfactant on the dispersion of the paste in water [1]	contact time for complete eradication of Enterococcus faecalis [2] [h]	reduction of bacteria [3] [%]
CC(=O)O.CC(=O)O.NC(=N\CCCCCC/N=C(N)/N=C(\N)Nc1ccc(Cl)cc1)/N=C(\N)Nc1ccc(Cl)cc1 [CHX, Chlorhexidine Acetate]	best performance		
[Ca+2].[OH-].[OH-] [calcium hydroxide]		24	92.5
Fatty Alcohol Polyoxyethylene Ether [AEO-9]	negative effects		
Polyoxyethylene (60) Hydrogenated Castor Oil [RH60]	best performance		
